In paper PMC9727064, “Performance assessment and economic analysis of a human Liver-Chip for predictive toxicology” (Communications Medicine, 2022):

Tests used:
[1] = tested on: 3D spheroid cultures of primary human hepatocytes; conditions: cited from earlier work; for Spheroid MOS: 3D hepatic spheroids, previously published data; for Spheroid false negative: Yes/No, also No for drugs not tested in spheroid
[2] = tested on: clinical drug-induced liver injury; conditions: clinical DILI severity category 1 to 5; cited from earlier work
[3] = tested on: human Liver-Chip (hepatocyte layer); experiment: Liver-Chip immunofluorescence imaging (caspase 3/7, TMRM, AdipoRed/LipidTOX); assay type: cell-based; conditions: for Immunofluorescent findings, donor one (Supplementary Figure 3) / Immunofluorescent findings, donor three (Supplementary Figure 3) / Immunofluorescent findings, donor two (Supplementary Figure 3): day 7 post-drug administration, hepatocyte layer, top channel; for IF imaging Donor 1 / IF imaging Donor 2 / IF imaging Donor 3: matched pair analysis; for Immunofluorescence staining result in words: caspase 3/7 (apoptosis) or TMRM (mitotoxicity), 7 days
Description: Chips were detached from pods and washed once with PBS. […] Afterwards, chips were washed with PBS and stored at 4 °C until staining. Following fixation, chips corresponding to low, medium, and high concentrations from each group were cut in half with a razor blade perpendicular to the co-culture channels. One half was used in the following staining protocol, while the other half was stored for future staining. All stains and washes utilized the bubble method, in which a small amount of air is flowed through the channel prior to bulk wash media to prevent a liquid-liquid dilution of the staining solution. […] Following 15 minutes of incubation at room temperature, each channel was washed with 200 µL of PBS (alternating channels, 2× for top and 3× for bottom). As an alternative lipid accumulation marker, 100 µL of HCS LipidTOX Deep Red (ThermoFisher, H34477) was diluted 1:1000 v/v in PBS with NucBlue counterstain and added to the top channel. After a 30 min incubation at room temperature, the chips were again allowed to reach room temperature before the channels were alternatively washed with 200 µL of PBS, the bottom channel undergoing three washes and the top channel undergoing two. Chips were then imaged using the Opera Phenix. Following lipid and DAPI staining and imaging, chips were stained with a […] (MRP2) antibody to visualize the bile canalicular structures characteristic of healthy Liver-Chips. […] Then, each channel was washed with 200 µL of PBS (alternating channels, 2× for top and 3× for bottom). […] Next, primary antibody Mouse anti-MRP2 (Abcam, ab3373) was prepared 1:100 in the original blocking buffer, diluted 1:4 in PBS. 100 µL of solution was added to each channel, and chips were stored overnight at 4 °C. The following day, each channel was washed with 200 µL of PBS (alternating channels, 2× for top and 3× for bottom). […] 100 µL of solution was added to each channel and chips incubated at room temperature, protected from light, for two hours. Then, each channel was washed with 200 µL of PBS (alternating channels, 2× for top and 3× for bottom). Chips were imaged immediately or stored at 4 °C until ready for imaging on the Opera Phenix. Chip replicates designated for live cell imaging were washed with PBS utilizing the bubble method. Chips were then cut in half perpendicular to the co-culture channels. […] The bottom chips halves were stained with NucBlue (Thermo) to visualize nuclei and Tetramethylrhodamine, methyl ester (TMRM) (ThermoFisher, I34361) to visualize active mitochondria. This staining panel was prepared in PBS with 5% FBS, with NucBlue at 2 drops per mL and TMRM at a 1:1000 ratio in original blocking buffer, diluted 1:4 in PBS. Chips were incubated in the dark at 37 °C for 30 min, and then each channel was washed with 200 µL of PBS (alternating channels, 2× for top and 3× for bottom). The chips were kept at 37 °C, protected from light, until ready for imaging with the Opera Phenix. Fluorescent confocal image acquisition was performed using the Opera Phenix High-Content Screening System and Harmony 4.9 Imaging and Analysis Software (PerkinElmer). Before acquisition, the Phenix internal environment was set to 37 °C and 5% CO2. […] Whole chips were placed directly into each slot, while top and bottom half chips were matched and combined in one chip slot. Chips were aligned flush with the adapter and one another. Any bubbles identified from visual inspection were washed out with PBS. Once ready, the stained chips were covered with transparent plate film to seal channel ports and loaded into the Phenix. […] Z-stacks were generated with 3.6 µm between slices for 28–32 planes so that the epithelium was located around the center of the stack. […] Raw images from fixed and live imaging were exported in TIFF format from the Harmony software. Using scripts written for FIJI (ImageJ), TIFFs across three color channels and multiple z-stacks were compiled into composite images for each field of view in each chip. […]

[4] = tested on: human Liver-Chip (primary human hepatocytes); experiment: Liver-Chip alanine transaminase (ALT) release in top channel effluent (ELISA); assay type: cell-based; conditions: for ALT Donor 1 / ALT Donor 2 / ALT Donor 3: lowest concentration causing an increase in ALT protein
From the text: Cycles 1 to 4 tested 6–8 concentrations in duplicate for each of 10–13 drugs. To determine which sampling strategy was optimal for cycles 1 to 4 (16 doses × 1 replicate, 8 × 2, 5 × 3, or 4 × 4), we generated three different “dose-response” synthetic datasets, each distorted by different noise levels (low, medium, or high). For each of these datasets, we performed curve-fitting analyses and calculated the Root Mean Square Error between the “true” and estimated IC50 parameter. […] Some drugs were also repeated across cycles (on different donors or at different concentrations) to ensure experimental robustness. However, to replicate a more typical study design likely to be carried out by scientists in the pharmaceutical industry, we created cycle 5 with 6 drugs, where each was tested in 4 concentrations in triplicate. For each cycle, chips were dosed with drug over 8 days (referred to as Day 0 through Day 7).
The drug dosing concentrations were determined from the unbound human Cmax of each drug. First, the expected fraction of drug unbound in media with 2% FBS was extrapolated from plasma binding data for each drug. Dosing concentrations were then back calculated such that the unbound fraction in media would reflect relevant multiples of unbound human Cmax (Supplementary Data 1).
On the first dosing day (Day 0), all chips were imaged using the ECHO microscope. Five hundred microliters of effluent was collected from all four reservoirs of the pod and placed in a labeled 96-well plate. After collection, all the remaining media was carefully aspirated before dosing with 3.8 mL of corresponding dosing solution. Dosing occurred on study days 0, 2, and 4 for chips flowing at 30 µL/h, and on days 0, 1, 2, 3, 4, 5, and 6 for chips flowing at 150 µL/h. Effluent collection occurred on days 1, 3, and 7.
Top channel outlet effluents were analyzed to quantify albumin and alanine transaminase (ALT) levels on days 1, 3, and 7 using sandwich ELISA kits (Abcam, Albumin ab179887, ALT ab234578) according to vendor-provided protocols. Frozen (−80 °C) effluent samples were thawed overnight at 4 °C prior to assay. The Hamilton Vantage liquid handling platform was used to manage effluent dilutions (1:500 for albumin, neat for ALT), preparation of standard curves, and addition of antibody cocktail. Absorbance at 450 nm was measured using the SynergyNeo Microplate Reader (BioTek).

[5] = tested on: human Liver-Chip; experiment: Liver-Chip DILI prediction: minimum toxic concentration and margin of safety (MOS)-like figure; conditions: for Chip MOS both donors / Chip MOS donor 1 / Chip MOS donor 2: free IC50 concentration in the assay divided by total concentration of drug in human plasma at Cmax;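 as to Chip MOS both donors: Toxic concentration is the lowest across albumin IC50 and ALT and morphology endpoints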;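 as to Chip MOS donor 1: Toxic concentration is the lowest across albumin IC50 and ALT and morphology endpoints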;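 as to Chip MOS donor 2: Toxic concentration is the lowest across albumin IC50 and ALT and morphology endpoints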
From the text: Because the fundamental principles of drug action dictate that free (unbound) drug concentrations drive drug effects, we explored an alternative methodology for calculating the MOS-like values by accounting for protein binding using a previously reported approach. Accordingly, we reanalyzed the findings for the 27 drugs in our study by accounting for protein binding.

Compound | Spheroid MOS [1] | Spheroid false negative [1] | Garside DILI rank [2] | Immunofluorescent findings, donor one (Supplementary Figure 3) [3] | Immunofluorescent findings, donor three (Supplementary Figure 3) [3] | IF imaging Donor 1 [3] | IF imaging Donor 2 [3] | IF imaging Donor 3 [3] | ALT Donor 1 [4] | ALT Donor 2 [4] | ALT Donor 3 [4] | Chip MOS both donors [5] | Chip MOS donor 1 [5] | Chip MOS donor 2 [5] | Immunofluorescent findings, donor two (Supplementary Figure 3) [3] | Toxicity detection in 3D hepatic spheroids ([1]; threshold 50) | Immunofluorescence staining result in words [3] | ALT_levels ([4]; Concentration_Day3 = 45, one line per replicate chip) | Liver-Chip toxicity determination, MOS-like figure against threshold value of 50 ([5]; not corrected for protein binding, donors one and two)
COC(c1ccccc1)(c1ccccc1)[C@H](Oc1nc(C)cc(C)n1)C(=O)O [Ambrisentan] | >127 | No | 5 | No findings | No findings | No findings | No findings | No findings | >300 multiples of the unbound human Cmax | >1000 multiples of the unbound human Cmax | >300 multiples of the unbound human Cmax | >10 | >3 | >10 | – | – | – | – | –
CCN(CC)C(=O)/C(C#N)=C/c1cc(O)c(O)c([N+](=O)[O-])c1 [Entacapone] | 46.5 | No | 4 | No findings | – | No findings | – | – | >300 multiples of the unbound human Cmax | – | – | – | >6 | – | – | – | – | – | –
O=c1[nH]c(=O)n([C@@H]2O[C@H](CO)[C@@H](O)[C@@H]2F)cc1I [Fialuridine] | 12.3 | No | 1 | No findings | – | No findings | Steatosis | – | >300 multiples of the unbound human Cmax | >300 multiples of the unbound human Cmax | – | 0.1 | 0.1 | 2.8 | Steatosis | – | – | – | –
C[C@H]1COc2c(N3CCN(C)CC3)c(F)cc3c(=O)c(C(=O)O)cn1c23 [Levofloxacin] | – | Yes | – | No findings | No findings | No findings | No findings | No findings | >15 multiples of the unbound human Cmax | >45 multiples of the unbound human Cmax | >45 multiples of the unbound human Cmax | >33.7 | >11.3 | >33.7 | – | not detected as toxic drugs in spheroids | did not cause cellular apoptosis | 0 | not detected
CCc1nn(CCCN2CCN(c3cccc(Cl)c3)CC2)c(=O)n1CCOc1ccccc1 [Nefazodone] | 6.8 | No | 1 | No findings | – | No findings | – | – | 300 multiples of the unbound human Cmax | – | – | – | 1.4 | – | – | – | – | – | –
CCc1ccc(CCOc2ccc(CC3SC(=O)NC3=O)cc2)nc1 (stereo not drawn) [Pioglitazone] | > 5.3 | Yes | 3 | Apoptosis | – | Apoptosis | No findings | – | >300 multiples of the unbound human Cmax | >300 multiples of the unbound human Cmax | – | 2.8 | 2.8 | > 2.8 | No findings | – | – | – | –
N[C@@H]1[C@H]2CN(c3nc4c(cc3F)c(=O)c(C(=O)O)cn4-c3ccc(F)cc3F)C[C@@H]12 [Trovafloxacin] | – | – | – | Apoptosis | Apoptosis | Apoptosis | Apoptosis | Apoptosis | 100 multiples of the unbound human Cmax | 100 multiples of the unbound human Cmax | 30 multiples of the unbound human Cmax | – | – | – | Apoptosis | – | concentration-dependent increases in caspase 3/7 staining | – | –
